Values quoted from earlier work, collected in patent publication US20210255187A1, “METHOD FOR PREDICTING THE EFFECTIVENESS OF TREATMENTS FOR CANCER PATIENTS” (University College Dublin, National University of Ireland, …, priority 2018, published 2021).

Test system: breast cancer cells

For `COc1cccc2c1C(=O)c1c(O)c3c(c(O)c1C2=O)C[C@@](O)(C(=O)CO)C[C@@H]3O[C@H]1C[C@H](N)[C@H](O)[C@H](C)O1` [doxorubicin], the “AKT phosphorylation in response to doxorubicin” value is given as “not changing”.
